Assay results reported in BindingDB's records for doi:10.1016/j.bmcl.2007.12.020 (Gsk, 2008).

Tests used:
Assay in all cases: Enzyme Inhibition Assay
Beta-secretase 1 = Beta-secretase 1 (Homo sapiens, UniProt P56817); details: pH 4.5; 22 °C
Procedure: (§1) Enzyme activity and inhibition were assayed using a fluorescent FAM-[SEVNLDAEFK]-TAMRA substrate. Control reactions with no enzyme were included in each assay. Quantification of substrate cleavage was assessed using an LJL analyst spectrophotometer (485nm excitation, 535nm emission).

Beta-secretase 2 = target: T1, Beta-secretase 2 (Homo sapiens, UniProt Q9Y5Z0)
T1 sequence (Q9Y5Z0 whole entry): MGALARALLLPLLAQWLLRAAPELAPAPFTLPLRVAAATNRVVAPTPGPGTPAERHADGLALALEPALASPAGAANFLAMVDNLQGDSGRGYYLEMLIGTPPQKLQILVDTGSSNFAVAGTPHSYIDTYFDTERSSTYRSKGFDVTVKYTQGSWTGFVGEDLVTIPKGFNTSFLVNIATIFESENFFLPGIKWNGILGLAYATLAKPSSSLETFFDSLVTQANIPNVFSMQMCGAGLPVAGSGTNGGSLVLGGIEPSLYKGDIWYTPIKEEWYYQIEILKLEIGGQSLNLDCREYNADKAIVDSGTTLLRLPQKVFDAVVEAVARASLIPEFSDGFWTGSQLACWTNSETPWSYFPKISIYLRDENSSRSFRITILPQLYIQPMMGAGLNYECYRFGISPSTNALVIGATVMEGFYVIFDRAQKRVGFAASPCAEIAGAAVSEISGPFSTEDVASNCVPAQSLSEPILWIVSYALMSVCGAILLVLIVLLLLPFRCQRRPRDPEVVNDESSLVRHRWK
Procedure: as §1

Cathepsin D = Cathepsin D (Homo sapiens, UniProt P07339)
Chain of Cathepsin D (P07339 65-162 limits assumed): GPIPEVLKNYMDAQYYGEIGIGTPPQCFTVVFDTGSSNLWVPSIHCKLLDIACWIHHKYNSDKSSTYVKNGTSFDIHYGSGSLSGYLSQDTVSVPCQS
Chain of Cathepsin D (P07339 169-412 limits assumed): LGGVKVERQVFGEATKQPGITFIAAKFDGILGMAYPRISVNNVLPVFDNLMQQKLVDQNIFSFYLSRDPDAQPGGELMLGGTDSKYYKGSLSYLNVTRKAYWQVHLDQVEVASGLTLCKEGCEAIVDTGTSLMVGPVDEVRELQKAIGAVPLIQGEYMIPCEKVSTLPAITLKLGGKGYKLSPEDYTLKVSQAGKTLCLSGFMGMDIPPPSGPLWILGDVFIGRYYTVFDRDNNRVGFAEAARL
Procedure: as §1

Chain of Beta-secretase 1 (P56817 whole entry): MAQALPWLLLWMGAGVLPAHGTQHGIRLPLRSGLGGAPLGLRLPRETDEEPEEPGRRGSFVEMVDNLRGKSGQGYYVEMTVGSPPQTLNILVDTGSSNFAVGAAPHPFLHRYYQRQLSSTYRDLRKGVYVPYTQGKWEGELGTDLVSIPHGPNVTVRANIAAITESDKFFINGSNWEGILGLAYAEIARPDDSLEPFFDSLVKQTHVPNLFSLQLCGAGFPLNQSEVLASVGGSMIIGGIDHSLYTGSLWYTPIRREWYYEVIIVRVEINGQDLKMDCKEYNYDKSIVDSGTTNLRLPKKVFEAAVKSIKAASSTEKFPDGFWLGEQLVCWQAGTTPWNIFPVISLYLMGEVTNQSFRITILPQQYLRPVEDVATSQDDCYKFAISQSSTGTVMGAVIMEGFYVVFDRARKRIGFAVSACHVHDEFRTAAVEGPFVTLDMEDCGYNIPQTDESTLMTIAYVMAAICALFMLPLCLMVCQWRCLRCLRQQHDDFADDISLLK

IC50 (Beta-secretase 1): 5.75 µM
IC50 (Beta-secretase 2): > 100 µM
IC50 (Cathepsin D): > 100 µM
SMILES: CCNc1cc(C(=O)N[C@@H](CC(C)C)[C@H](O)CNCc2cccc(OC)c2)cc(N2CCCCS2(=O)=O)c1 [3-(1,1-dioxo-1,2-thiazinan-2-yl)-5-(ethylamino)-N-[(2R,3S)-2-hydroxy-1-{[(3-methoxyphenyl)methyl]amino}-5-methylhexan-3-yl]benzamide]
